In PubChem BioAssay (NCI):
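Each compound was tested at five concentrations against cells in 96-well plates for 48 hours. Here, GI50 denotes the concentration required for 50% inhibition of growth. The concentration for full growth arrest is given as TGI.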

Columns and labels:
Test in all cases: DTP human tumour cell line panel, 48 h
ACHN renal = tested on: ACHN renal
TK-10 renal = tested on: TK-10 renal
NCI-H522 lung = tested on: NCI-H522 lung
K-562 leukemia = tested on: K-562 leukemia
RPMI-8226 leukemia = tested on: RPMI-8226 leukemia
OVCAR-5 ovarian = tested on: OVCAR-5 ovarian
SN12C renal = tested on: SN12C renal
MDA-MB-435 = tested on: MDA-MB-435
SF-295 CNS = tested on: SF-295 CNS
UACC-257 melanoma = tested on: UACC-257 melanoma

With `O=C(Nc1cccnc1)c1ccc2ccc3ccc(C(=O)Nc4cccnc4)nc3c2n1` the GI50 (ACHN renal) was 0.145 µM, the TGI (ACHN renal) was > 100 µM and the TGI (TK-10 renal) was > 100 µM. The GI50 (NCI-H522 lung) was 0.525 µM, the TGI (NCI-H522 lung) was > 100 µM and the GI50 (K-562 leukemia) was 0.0526 µM. For the same compound, the TGI (K-562 leukemia) was > 100 µM, the GI50 (RPMI-8226 leukemia) was 0.0876 µM and the TGI (RPMI-8226 leukemia) was > 100 µM. The TGI (OVCAR-5 ovarian) was > 100 µM, the GI50 (SN12C renal) was 0.3 µM and the TGI (SN12C renal) was > 100 µM. The GI50 (MDA-MB-435) was 0.184 µM, the TGI (MDA-MB-435) was > 100 µM and the GI50 (SF-295 CNS) was 0.252 µM. The TGI (SF-295 CNS) was > 100 µM.

With `CC1=NN(C(=O)c2ccc(Cl)cc2)C(=O)/C1=C/c1ccco1` the TGI (ACHN renal) was > 100 µM, the TGI (TK-10 renal) was > 100 µM and the TGI (NCI-H522 lung) was > 100 µM. For the same compound, the TGI (K-562 leukemia) was > 100 µM, the TGI (RPMI-8226 leukemia) was > 100 µM and the TGI (OVCAR-5 ovarian) was > 100 µM. For the same compound, the TGI (SN12C renal) was > 100 µM, the TGI (UACC-257 melanoma) was > 100 µM and the TGI (SF-295 CNS) was > 100 µM.

With `CC1=C2[C@H](c3ccccc3)C3C=CC2(c2ccccc23)N(C(=O)C(c2ccccc2)c2ccccc2)C1=O` (stereo not given in full) the TGI (ACHN renal) was > 100 µM, the TGI (TK-10 renal) was > 100 µM and the TGI (K-562 leukemia) was > 100 µM. The TGI (OVCAR-5 ovarian) was > 100 µM, the TGI (SN12C renal) was > 100 µM and the TGI (UACC-257 melanoma) was > 100 µM. For the same compound, the TGI (SF-295 CNS) was > 100 µM.

`COC(=O)C(C(=O)C(=O)Nc1ccc(OC)cc1[N+](=O)[O-])c1nc2cc(C)c(C)cc2[nH]c1=O` (stereo not given) was tested, and the TGI (ACHN renal) was > 100 µM, the TGI (TK-10 renal) was > 100 µM and the TGI (NCI-H522 lung) was > 100 µM. The TGI (K-562 leukemia) was > 100 µM, the TGI (SN12C renal) was > 100 µM and the TGI (UACC-257 melanoma) was > 100 µM. For the same compound, the TGI (SF-295 CNS) was > 100 µM.

`C=C1C(=O)OC2CC3(C)CCCC(C)C3=CC12` (stereo not given) gave a TGI (ACHN renal) of 10.4 µM, a TGI (TK-10 renal) of 10.1 µM and a TGI (NCI-H522 lung) of 3.97 µM. For the same compound, the TGI (K-562 leukemia) was 6.61 µM, the TGI (OVCAR-5 ovarian) was 23.4 µM and the TGI (SN12C renal) was 12.2 µM. The TGI (MDA-MB-435) was 14.1 µM, the TGI (UACC-257 melanoma) was 18.1 µM and the TGI (SF-295 CNS) was 26.3 µM.

In the case of `COc1cc(/C=C\c2ccc(OC(C)=O)cc2)cc(OC)c1OC`, the TGI (ACHN renal) is reported as > 100 µM, the TGI (NCI-H522 lung) is reported as > 100 µM and the TGI (K-562 leukemia) is reported as > 100 µM. The TGI (RPMI-8226 leukemia) was > 100 µM, the TGI (OVCAR-5 ovarian) was > 100 µM and the TGI (SN12C renal) was > 100 µM. The TGI (UACC-257 melanoma) was > 100 µM.

`Nc1ccc2c(c1)Oc1c(F)c(F)cc3c(=O)c(C(=O)O)cn-2c13` was tested, and the TGI (TK-10 renal) was > 100 µM, the TGI (NCI-H522 lung) was > 100 µM and the TGI (K-562 leukemia) was > 100 µM. The TGI (RPMI-8226 leukemia) was > 100 µM, the TGI (OVCAR-5 ovarian) was > 100 µM and the TGI (SN12C renal) was > 100 µM.

`CC(=O)O/N=C(Cl)/C(Cl)=N/OC(C)=O` was tested, and the TGI (ACHN renal) was > 100 µM, the TGI (TK-10 renal) was > 100 µM and the TGI (NCI-H522 lung) was > 100 µM. The TGI (K-562 leukemia) was > 100 µM, the TGI (RPMI-8226 leukemia) was > 100 µM and the TGI (OVCAR-5 ovarian) was > 100 µM. The TGI (SN12C renal) was > 100 µM, the TGI (UACC-257 melanoma) was > 100 µM and the TGI (SF-295 CNS) was > 100 µM.

With `Cc1nc(Nc2ccccc2)sc1C(=O)CC(=O)C(=O)NC12CC3CC(CC(C3)C1)C2` the TGI (ACHN renal) was > 100 µM, the TGI (TK-10 renal) was > 100 µM and the TGI (NCI-H522 lung) was > 100 µM. For the same compound, the TGI (K-562 leukemia) was > 100 µM, the TGI (OVCAR-5 ovarian) was > 100 µM and the TGI (SN12C renal) was > 100 µM. For the same compound, the TGI (UACC-257 melanoma) was > 100 µM and the TGI (SF-295 CNS) was > 100 µM.

For `COc1ccc(/C=c2/sc3n(c2=O)NC(c2ccc(Cl)cc2)NN=3)cc1` (stereo not given), the TGI (TK-10 renal) was > 100 µM, the TGI (NCI-H522 lung) was > 100 µM and the TGI (K-562 leukemia) was > 100 µM. For the same compound, the TGI (OVCAR-5 ovarian) was > 100 µM, the TGI (SN12C renal) was > 100 µM and the TGI (SF-295 CNS) was > 100 µM.

For `CCOC(=O)NC(=O)c1cn(CCN2CCNCC2)c(=O)[nH]c1=O`, the TGI (ACHN renal) was > 100 µM, the TGI (TK-10 renal) was > 100 µM and the TGI (NCI-H522 lung) was > 100 µM. For the same compound, the TGI (K-562 leukemia) was > 100 µM, the TGI (RPMI-8226 leukemia) was > 100 µM and the TGI (OVCAR-5 ovarian) was > 100 µM. For the same compound, the TGI (SN12C renal) was > 100 µM and the TGI (SF-295 CNS) was > 100 µM.

For `Cc1c(C2Cc3ccccc3N2)c2ccccc2n1C` (stereo not given), the TGI (ACHN renal) was > 100 µM, the TGI (TK-10 renal) was > 100 µM and the TGI (NCI-H522 lung) was > 100 µM. For the same compound, the TGI (K-562 leukemia) was > 100 µM, the TGI (OVCAR-5 ovarian) was > 100 µM and the TGI (SN12C renal) was > 100 µM. For the same compound, the TGI (UACC-257 melanoma) was > 100 µM and the TGI (SF-295 CNS) was > 100 µM.
